Measured values: the OligoGym collection
HELM strings list units from the 5' end as sugar, base in round brackets, then linkage (d deoxyribose, r ribose, m 2'-O-methyl, p phosphodiester). Strings are as the collection lists them; they lack the last nucleoside at the 3' end of the tested compound. [moe] = 2'-O-(2-methoxyethyl) (MOE); [sp] = phosphorothioate linkage; [m5C] = 5-methylcytosine

Target: UBE3A-ATS
Assay: mouse, dose not given
Settings: ASO

Substance | 3 h FOB score
RNA1{[moe]([m5C])[sp].[moe](T)p.[moe](G)p.[moe](T)p.[moe](A)p.d(T)[sp].d(A)[sp].d(G)[sp].d(T)[sp].d(T)[sp].d(T)[sp].d(A)[sp].d([m5C])[sp].d([m5C])[sp].d([m5C])[sp].[moe](A)p.[moe](G)p.[moe](G)[sp].[moe]([m5C])}$$$$ (last 3' nucleoside missing) | 0 score 0-7
RNA1{[moe]([m5C])[sp].[moe](T)p.[moe](G)p.[moe]([m5C])p.[moe](T)p.[moe](T)p.d([m5C])[sp].d(A)[sp].d([m5C])[sp].d([m5C])[sp].d(A)[sp].d(T)[sp].d(T)[sp].d(T)[sp].d(T)[sp].d(G)[sp].[moe](A)p.[moe]([m5C])[sp].[moe]([m5C])}$$$$ (last 3' nucleoside missing) | 0 score 0-7
RNA1{[moe]([m5C])[sp].[moe](T)p.[moe](G)p.[moe]([m5C])p.[moe](T)p.[moe]([m5C])p.d(A)[sp].d(G)[sp].d(T)[sp].d(T)[sp].d(A)[sp].d(G)[sp].d(G)[sp].d(T)[sp].d(T)[sp].d(A)[sp].[moe](G)p.[moe](T)[sp].[moe](G)}$$$$ (last 3' nucleoside missing) | 3 score 0-7
RNA1{[moe]([m5C])[sp].[moe](T)p.[moe](G)p.[moe]([m5C])p.[moe](T)p.d(T)[sp].d(A)[sp].d(T)[sp].d(G)[sp].d(T)[sp].d(A)[sp].d(G)[sp].d([m5C])[sp].d(T)[sp].d([m5C])[sp].[moe](A)p.[moe](G)p.[moe]([m5C])[sp].[moe](T)}$$$$ (last 3' nucleoside missing) | 1 score 0-7
RNA1{[moe]([m5C])[sp].[moe](T)p.[moe](G)p.[moe]([m5C])p.[moe](T)p.d(T)[sp].d([m5C])[sp].d(A)[sp].d([m5C])[sp].d([m5C])[sp].d(A)[sp].d(T)[sp].d(T)[sp].d(T)[sp].d(T)[sp].[moe](G)p.[moe](A)p.[moe]([m5C])[sp].[moe]([m5C])}$$$$ (last 3' nucleoside missing) | 1.3 score 0-7
RNA1{[moe]([m5C])[sp].[moe](T)p.[moe](G)p.[moe]([m5C])p.[moe](T)p.d([m5C])[sp].d(A)[sp].d(G)[sp].d(T)[sp].d(T)[sp].d(A)[sp].d(G)[sp].d(G)[sp].d(T)[sp].d(T)[sp].[moe](A)p.[moe](G)p.[moe](T)[sp].[moe](G)}$$$$ (last 3' nucleoside missing) | 3.3 score 0-7
RNA1{[moe]([m5C])[sp].[moe](T)p.[moe](G)p.[moe]([m5C])p.d(T)[sp].d(T)[sp].d([m5C])[sp].d(A)[sp].d([m5C])[sp].d([m5C])[sp].d(A)[sp].d(T)[sp].d(T)[sp].d(T)[sp].[moe](T)p.[moe](G)p.[moe](A)p.[moe]([m5C])[sp].[moe]([m5C])}$$$$ (last 3' nucleoside missing) | 0 score 0-7
RNA1{[moe]([m5C])[sp].[moe](T)p.[moe](G)p.[moe]([m5C])p.d(T)[sp].d([m5C])[sp].d(A)[sp].d(G)[sp].d(T)[sp].d(T)[sp].d(A)[sp].d(G)[sp].d(G)[sp].d(T)[sp].[moe](T)p.[moe](A)p.[moe](G)p.[moe](T)[sp].[moe](G)}$$$$ (last 3' nucleoside missing) | 4 score 0-7
RNA1{[moe]([m5C])[sp].[moe](T)p.[moe](T)p.[moe](A)p.[moe](A)p.d(A)[sp].d(T)[sp].d(A)[sp].d(G)[sp].d(T)[sp].d(A)[sp].d(G)[sp].d(G)[sp].d(A)[sp].d(A)[sp].[moe](A)p.[moe](G)p.[moe]([m5C])[sp].[moe]([m5C])}$$$$ (last 3' nucleoside missing) | 4.8 score 0-7
RNA1{[moe]([m5C])[sp].[moe](T)p.[moe](T)p.[moe](A)p.[moe](G)p.d(A)[sp].d(T)[sp].d(G)[sp].d(T)[sp].d(G)[sp].d(T)[sp].d(T)[sp].d(T)[sp].d(A)[sp].d(T)[sp].[moe]([m5C])p.[moe]([m5C])p.[moe](A)[sp].[moe](A)}$$$$ (last 3' nucleoside missing) | 1.2 score 0-7
RNA1{[moe]([m5C])[sp].[moe](T)p.[moe](T)p.[moe](A)p.[moe](G)p.d(G)[sp].d([m5C])[sp].d(A)[sp].d(A)[sp].d(T)[sp].d(G)[sp].d(G)[sp].d(A)[sp].d([m5C])[sp].d(T)[sp].[moe](T)p.[moe](A)p.[moe](G)[sp].[moe](T)}$$$$ (last 3' nucleoside missing) | 1 score 0-7
RNA1{[moe]([m5C])[sp].[moe](T)p.[moe](T)p.[moe](A)p.[moe](T)p.d(G)[sp].d(T)[sp].d(A)[sp].d(G)[sp].d([m5C])[sp].d(T)[sp].d([m5C])[sp].d(A)[sp].d(G)[sp].d([m5C])[sp].[moe](T)p.[moe]([m5C])p.[moe](A)[sp].[moe](A)}$$$$ (last 3' nucleoside missing) | 2 score 0-7
RNA1{[moe]([m5C])[sp].[moe](T)p.[moe](T)p.[moe](G)p.[moe](A)p.d(T)[sp].d(G)[sp].d(G)[sp].d([m5C])[sp].d(T)[sp].d(G)[sp].d(T)[sp].d(A)[sp].d(G)[sp].d([m5C])[sp].[moe](T)p.[moe](T)p.[moe](G)[sp].[moe](G)}$$$$ (last 3' nucleoside missing) | 5 score 0-7
RNA1{[moe]([m5C])[sp].[moe](T)p.[moe](T)p.[moe](T)p.[moe](A)p.d(G)[sp].d(T)[sp].d(A)[sp].d(T)[sp].d(G)[sp].d(T)[sp].d([m5C])[sp].d(G)[sp].d(A)[sp].d(G)[sp].[moe](A)p.[moe](A)p.[moe]([m5C])[sp].[moe](T)}$$$$ (last 3' nucleoside missing) | 5 score 0-7
RNA1{[moe]([m5C])[sp].[moe](T)p.[moe](T)p.[moe](T)p.[moe](A)p.d(T)[sp].d(A)[sp].d([m5C])[sp].d(T)[sp].d(T)[sp].d(T)[sp].d(A)[sp].d([m5C])[sp].d([m5C])[sp].d([m5C])[sp].[moe](A)p.[moe](A)p.[moe]([m5C])[sp].[moe](T)}$$$$ (last 3' nucleoside missing) | 0 score 0-7
RNA1{[moe]([m5C])[sp].[moe](T)p.[moe](T)p.[moe](T)p.[moe]([m5C])p.d(A)[sp].d(T)[sp].d([m5C])[sp].d(A)[sp].d(G)[sp].d(T)[sp].d(T)[sp].d(A)[sp].d(G)[sp].d(T)[sp].[moe]([m5C])p.[moe](A)p.[moe](G)[sp].[moe](G)}$$$$ (last 3' nucleoside missing) | 3.5 score 0-7
RNA1{[moe]([m5C])[sp].[moe](T)p.[moe](T)p.[moe]([m5C])[sp].d(A)[sp].d([m5C])[sp].d([m5C])[sp].d(A)[sp].d(T)[sp].d(T)[sp].d(T)[sp].d(T)[sp].[moe](G)p.[moe](A)p.[moe]([m5C])p.[moe]([m5C])[sp].[moe](T)}$$$$ (last 3' nucleoside missing) | 0 score 0-7
RNA1{[moe]([m5C])[sp].[moe](T)p.[moe](T)p.[moe]([m5C])p.[moe](A)p.[moe]([m5C])p.d([m5C])[sp].d(A)[sp].d(T)[sp].d(T)[sp].d(T)[sp].d(T)[sp].d(G)[sp].d(A)[sp].d([m5C])[sp].d([m5C])[sp].[moe](T)p.[moe](T)[sp].[moe]([m5C])}$$$$ (last 3' nucleoside missing) | 1 score 0-7
RNA1{[moe]([m5C])[sp].[moe](T)p.[moe](T)p.[moe]([m5C])p.[moe](A)p.d(A)[sp].d([m5C])[sp].d(T)[sp].d(A)[sp].d(A)[sp].d([m5C])[sp].d(A)[sp].d(G)[sp].d(T)[sp].d(A)[sp].[moe](T)p.[moe]([m5C])p.[moe](T)[sp].[moe](T)}$$$$ (last 3' nucleoside missing) | 0 score 0-7
RNA1{[moe]([m5C])[sp].[moe](T)p.[moe](T)p.[moe]([m5C])p.[moe](A)p.d(T)[sp].d(T)[sp].d(A)[sp].d(T)[sp].d(T)[sp].d([m5C])[sp].d(T)[sp].d([m5C])[sp].d(T)[sp].d(A)[sp].[moe](G)p.[moe](T)p.[moe](G)[sp].[moe]([m5C])}$$$$ (last 3' nucleoside missing) | 0 score 0-7
RNA1{[moe]([m5C])[sp].[moe](T)p.[moe](T)p.[moe]([m5C])p.[moe](A)p.d([m5C])[sp].d([m5C])[sp].d(A)[sp].d(T)[sp].d(T)[sp].d(T)[sp].d(T)[sp].d(G)[sp].d(A)[sp].d([m5C])[sp].[moe]([m5C])p.[moe](T)p.[moe](T)[sp].[moe]([m5C])}$$$$ (last 3' nucleoside missing) | 1 score 0-7
RNA1{[moe]([m5C])[sp].[moe](T)p.[moe](T)p.[moe]([m5C])p.d(A)[sp].d([m5C])[sp].d([m5C])[sp].d(A)[sp].d(T)[sp].d(T)[sp].d(T)[sp].d(T)[sp].d(G)[sp].d(A)[sp].[moe]([m5C])p.[moe]([m5C])p.[moe](T)p.[moe](T)[sp].[moe]([m5C])}$$$$ (last 3' nucleoside missing) | 1 score 0-7
RNA1{[moe]([m5C])[sp].[moe](T)p.[moe]([m5C])p.[moe](A)[sp].d(G)[sp].d(T)[sp].d(T)[sp].d(A)[sp].d(G)[sp].d(G)[sp].d(T)[sp].d(T)[sp].[moe](A)p.[moe](G)p.[moe](T)p.[moe](G)[sp].[moe]([m5C])}$$$$ (last 3' nucleoside missing) | 5.3 score 0-7
RNA1{[moe]([m5C])[sp].[moe](T)p.[moe]([m5C])p.[moe](A)p.[moe](G)[sp].d(T)[sp].d(T)[sp].d(A)[sp].d(G)[sp].d(G)[sp].d(T)[sp].d(T)[sp].d(A)[sp].[moe](G)p.[moe](T)p.[moe](G)[sp].[moe]([m5C])}$$$$ (last 3' nucleoside missing) | 1.3 score 0-7
RNA1{[moe]([m5C])[sp].[moe](T)p.[moe]([m5C])p.[moe](A)p.[moe](G)p.[moe](T)[sp].d(T)[sp].d(A)[sp].d(G)[sp].d(G)[sp].d(T)[sp].d(T)[sp].d(A)[sp].d(G)[sp].[moe](T)p.[moe](G)[sp].[moe]([m5C])}$$$$ (last 3' nucleoside missing) | 6.3 score 0-7
RNA1{[moe]([m5C])[sp].[moe](T)p.[moe]([m5C])p.[moe](A)p.[moe](G)p.[moe](T)p.d(T)[sp].d(A)[sp].d(G)[sp].d(G)[sp].d(T)[sp].d(T)[sp].d(A)[sp].d(G)[sp].d(T)[sp].d(G)[sp].[moe]([m5C])p.[moe](A)[sp].[moe]([m5C])}$$$$ (last 3' nucleoside missing) | 4 score 0-7
